Results taken from patent US20250312345A1, “NON-COVALENT INHIBITORS OF THE MAIN PROTEASE OF SARS-COV-2 AND METHODS OF USE” (YALE UNIVERSITY, priority 2022, published 2025).
Where two headings read alike, the source gives them in different places.

Tests used:
[1] = target: SARS-CoV-2 M^pro (Severe acute respiratory syndrome coronavirus 2, UniProt P0DTD1); assay: biochemical; format: biochemical
[2] = Thermodynamic aqueous solubility, shake-flask; format: physicochemical; conditions: 48 h
Description: The calibration and measurement (after 48 h of stirring) were performed on the same day.

[3] = tested on: SARS-CoV-2 replicon; assay: microbe, parasite or virus in culture; format: cell-based; conditions: for IC50: read-out: calculated IC50, compound alone
[4] = tested on: normal human bronchial epithelial cells (NHBE); conditions: cited from earlier work
[5] = tested on: Vero E6 cells; conditions: cited from earlier work
[6] = tested on: SARS-CoV-2 replicon; format: cell-based
[7] = PAMPA assay; conditions: PBS pH 7.4, 5% DMSO, 18 hours, room temperature
[8] = tested on: normal human bronchial epithelial cells (NHBE); conditions: for CC50: human
[9] = tested on: Vero E6 cells; conditions: African green monkey
[10] = target: HERG ion channel (Homo sapiens, UniProt Q12809); assay: In vitro pharmacological profiling, HERG; conditions: at high concentrations
HERG ion channel, sequence (Q12809 whole entry, canonical isoform): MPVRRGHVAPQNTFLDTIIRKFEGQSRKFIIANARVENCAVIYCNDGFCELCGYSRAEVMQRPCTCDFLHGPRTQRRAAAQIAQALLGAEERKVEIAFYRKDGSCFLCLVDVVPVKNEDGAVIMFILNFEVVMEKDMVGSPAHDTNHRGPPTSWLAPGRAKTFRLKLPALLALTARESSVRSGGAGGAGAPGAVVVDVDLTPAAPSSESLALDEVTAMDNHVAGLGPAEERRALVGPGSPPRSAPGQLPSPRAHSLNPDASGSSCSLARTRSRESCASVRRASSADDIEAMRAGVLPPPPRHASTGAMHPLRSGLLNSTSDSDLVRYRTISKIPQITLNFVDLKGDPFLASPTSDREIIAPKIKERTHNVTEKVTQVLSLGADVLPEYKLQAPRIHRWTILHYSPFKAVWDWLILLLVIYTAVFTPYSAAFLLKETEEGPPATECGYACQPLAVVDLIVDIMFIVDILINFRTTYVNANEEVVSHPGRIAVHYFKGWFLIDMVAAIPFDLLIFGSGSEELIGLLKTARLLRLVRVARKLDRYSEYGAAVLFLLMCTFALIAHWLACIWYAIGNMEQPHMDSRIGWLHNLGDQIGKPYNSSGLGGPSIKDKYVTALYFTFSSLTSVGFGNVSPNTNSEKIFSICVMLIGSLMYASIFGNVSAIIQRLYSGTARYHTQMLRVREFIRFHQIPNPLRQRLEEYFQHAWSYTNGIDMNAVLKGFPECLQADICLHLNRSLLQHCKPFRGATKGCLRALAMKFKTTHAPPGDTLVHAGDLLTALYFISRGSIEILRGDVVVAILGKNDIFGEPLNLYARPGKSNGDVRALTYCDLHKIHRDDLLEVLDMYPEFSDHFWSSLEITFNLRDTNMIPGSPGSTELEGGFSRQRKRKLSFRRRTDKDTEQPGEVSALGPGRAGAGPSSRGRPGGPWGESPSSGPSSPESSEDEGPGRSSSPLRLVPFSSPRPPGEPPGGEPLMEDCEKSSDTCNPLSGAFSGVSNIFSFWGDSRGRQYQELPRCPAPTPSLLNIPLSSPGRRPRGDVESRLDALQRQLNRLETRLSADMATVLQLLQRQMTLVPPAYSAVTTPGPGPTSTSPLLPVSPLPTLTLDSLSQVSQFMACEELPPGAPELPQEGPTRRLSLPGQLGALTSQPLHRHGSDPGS
Description: (§1) Rows represent compounds tested and columns represent targets. Percentage inhibition at 10 μM concentration of the compounds is color-coded. A panel of 35 targets including CYP450 isoforms, ions channels, receptors examined for off-target effects.

[11] = tested on: SARS-CoV-2 replication; assay: Serum and lung tissue extracts tested on SARS-CoV-2 replication in cell culture; format: cell-based; conditions: extracts of mice dosed with compound 61
[12] = tested on: panel of 35 targets including CYP450 isoforms, ions channels, receptors; assay: In vitro pharmacological profiling against targets for adverse drug reactions; conditions: percentage inhibition at 10 μM
Description: as §1

[13] = in vitro
[14] = Britton-Robinson buffer pH 6.5, shake-flask, 21-22° C.
[15] = read-out: CC50 NHBE, Table 3, marked g: Zhang et al., ACS Cent. Sci. 2021
[16] = read-out: CC50 Vero E6, Table 3, marked g: Zhang et al., ACS Cent. Sci. 2021
[17] = 13 combined with remdesivir, MacSynergy II

O=c1ccn(-c2cc(-c3ccccc3)c(=O)n(-c3cccnc3)c2)c(=O)[nH]1 [Cmpd 1]
IC50 ([1]; Table 4): 100 µM

N#Cc1ccccc1-c1cc(-c2cccc(Cl)c2)c(=O)n(-c2ccc[n+]([O-])c2)c1 [Cmpd 10]
IC50 ([1]; Table 4): 15.6 ± 2.37 µM

N#Cc1ccccc1-c1cc(-c2cc(Cl)cc(Cl)c2)c(=O)n(-c2ccc[n+]([O-])c2)c1 [Cmpd 11]
IC50 ([1]; Table 4): 5 to 20 µM

N#Cc1cccc(-c2cc(-c3c[nH]c(=O)[nH]c3=O)cn(-c3cccnc3)c2=O)c1 [Cmpd 19]
IC50 ([1]; Table 4): ~10 µM

COc1cc(F)cc(-c2cc(-c3c[nH]c(=O)[nH]c3=O)cn(-c3cccnc3)c2=O)c1 [Cmpd 20]
IC50 ([1]; Table 4): 10 to 100 µM

COc1ccc(-c2cc(-c3cccc(Cl)c3)c(=O)n(-c3cccnc3)c2)c(C#N)n1 [Cmpd 22]
IC50 ([1]; Table 4): 10 to 100 µM

N#Cc1[nH]c(=O)ccc1-c1cc(-c2cccc(Cl)c2)c(=O)n(-c2cccnc2)c1 [Cmpd 23]
IC50 ([1]; Table 4): ~10 µM

COc1cc(CCOc2cc(Cl)cc(-c3cc(-c4ccccc4C#N)cn(-c4cccnc4)c3=O)c2)cc(OC)c1 [Cmpd 30]
IC50 ([1]; Table 4): > 1 µM

CCNC(=O)COc1cc(Cl)cc(-c2cc(-c3ccccc3C#N)cn(-c3cccnc3)c2=O)c1 [Cmpd 33]
IC50 ([1]; Table 4): 0.5 to 1 µM

Cc1ocnc1COc1cc(Cl)cc(-c2cc(-c3c[nH]c(=O)[nH]c3=O)cn(-c3cccnc3)c2=O)c1 [Cmpd 49]
aq. sol. [2, 14]: 7.6 ± 0.7 µg/mL

O=c1ccn(-c2cc(-c3cc(Cl)cc(OCC4CC4)c3)c(=O)n(-c3cccnc3)c2)c(=O)[nH]1 [Cmpd 54]
IC50 ([1]; Table 4): 1.2 ± 0.1 µM

O=c1c(-c2cc(Cl)cc(OCC3CC3)c2)cc(-c2ccc(F)cc2F)cn1-c1cccnc1 [Cmpd 55]
IC50 ([1]; Table 4): ~10 µM

N#Cc1ccc(F)cc1-c1cc(-c2cc(Cl)cc(OCC3CC3)c2)c(=O)n(-c2cccnc2)c1 [Cmpd 56]
IC50 ([1]; Table 4): 0.427 ± 0.027 µM

CN(C)c1ccc(C#N)c(-c2cc(-c3cc(Cl)cc(OCC4CC4)c3)c(=O)n(-c3cccnc3)c2)c1 [Cmpd 58]
IC50 ([1]; Table 4): 1.3 ± 0.2 µM

Cn1ccnc1COc1cc(Cl)cc(-c2cc(-c3ccccc3C#N)cn(-c3cccnc3)c2=O)c1 [Cmpd 59]
IC50 ([1]; Table 4): ~0.194 µM

Cn1cc(-c2cc(-c3cc(Cl)cc(OCc4ocnc4C(F)(F)F)c3)c(=O)n(-c3cccnc3)c2)c(=O)[nH]c1=O [Cmpd 65]
aq. sol. [2, 14]: 34.5 ± 0.3 µg/mL

O=c1[nH]cc(-c2cc(-c3cc(Cl)cc(OCC4CC4)c3)c(=O)n(-c3cncc4ccccc34)c2)c(=O)[nH]1 [Cmpd 66]
IC50 ([1]; Table 4): 0.04 ± 0.002 µM

N#Cc1ccccc1-c1cc(-c2cc(Cl)cc(Cl)c2)c(=O)n(-c2cccnc2)c1 [Compound 9, 2-(3-(3,5-Dichlorophenyl)-2-oxo-2H-[1,3′-bipyridin]-5-yl)benzonitrile]
IC50 ([3]; Severe acute respiratory syndrome coronavirus 2, BHK): 0.0938 µM

CCCOc1cc(Cl)cc(-c2cc(-c3ccccc3C#N)cn(-c3cccnc3)c2=O)c1 [Compound 13, 2-(3-(3-Chloro-5-propoxyphenyl)-2-oxo-2H-[1,3′-bipyridin]-5-yl)benzonitrile]
CC50 [4, 15]: 20 ± 2 µM | factor of improvement in potency over 9 ([1]; IC50 of 13 versus 9): ca. 30 | CC50 [5, 16]: 22 ± 7.2 µM | mean antagonism volume [6, 17]: 0 M^2% | mean synergy volume [6, 17]: 30.8 M^2% | combination behavior with remdesivir ([6]; range of combinations of 13 and remdesivir, FIG. 3): statistically significant synergistic behavior

O=c1[nH]cc(-c2cc(-c3cc(Cl)cc(OCc4ccccc4)c3)c(=O)n(-c3cccnc3)c2)c(=O)[nH]1 [Compound 21]
IC50 ([1]; read-out: IC50 (μM), inhibition of SARS-CoV-2 M^pro, Table 1 and text, 100 nM M^pro, FRET substrate, triplicate): 0.128 µM

N#Cc1ccccc1-c1cc(-c2cc(Cl)cc(OCC3CC3)c2)c(=O)n(-c2cccnc2)c1 [Compound 39, 2-(3-(3-Chloro-5-(cyclopropylmethoxy)phenyl)-2-oxo-2H-[1,3′-bipyridin]-5-yl)benzonitrile]
CC50 [4]: > 100 µM | PAMPA permeability [7]: 4.27 ± 0.07 10^−6 cm/s | CC50 [5]: > 100 µM | aq. sol. [2, 14]: 3 ± 2 µg/mL

N#Cc1ccccc1-c1cc(-c2cc(Cl)cc(OCCC(F)(F)F)c2)c(=O)n(-c2cccnc2)c1 [Compound 47, 2-(3-(3-Chloro-5-(3,3,3-trifluoropropoxy)phenyl)-2-oxo-2H-[1,3′-bipyridin]-5-yl)benzonitrile]
cytotoxicity towards NHBE cells [8]: more cytotoxic

O=c1[nH]cc(-c2cc(-c3cc(Cl)cc(OCc4ccc(F)cc4Cl)c3)c(=O)n(-c3cccnc3)c2)c(=O)[nH]1 [Compound 48, 5-(3-(3-Chloro-5-((2-chloro-4-fluorobenzyl)oxy)phenyl)-2-oxo-2H-[1,3′-bipyridin]-5-yl)pyrimidine-2,4(1H,3H)-dione]
CC50 [4]: 25 ± 5 µM | CC50 [5]: 22 ± 8 µM | aq. sol. ([2]; pH 6.5): 25.0 ± 0.1 µg/mL | EC50 ([3]; Table 3): 120 ± 0.2 µM

Cn1cc(-c2cc(-c3cc(Cl)c(F)c(OCc4ccccc4Cl)c3)c(=O)n(-c3cccnc3)c2)c(=O)[nH]c1=O [Compound 61]
CC50 [9]: > 32.5 µM | inhibition of HERG ion channel [10]: minimal inhibition | CC50 [8]: > 32.5 µM | inhibition of SARS-CoV-2 replication by serum and lung tissue extracts [11]: exhibited inhibition | aq. sol. [2, 14]: 116.5 ± 8.8 µg/mL | off-target effects [12]: no significant off-target effects | combination effect with EIDD-1931 ([6]; combination of EIDD-1931 and compound 61, FIG. 6): synergistic effect | CC50 [13]: > 32 µM

O=c1nc(NO)ccn1[C@@H]1O[C@H](CO)[C@@H](O)[C@H]1O [EIDD-1931, reference compound]
IC50 [3]: 2.23 µM

O=c1[nH]cc(-c2cc(-c3cc(Cl)c(F)c(OCc4ccccc4Cl)c3)c(=O)n(-c3cccnc3)c2)c(=O)[nH]1 [compound 43]
CC50 [9]: > 80 µM | CC50 [8]: > 95 µM | PAMPA permeability [7]: 0.73 ± 0.05 10^−6 cm/s | aq. sol. [2, 14]: 21.8 ± 0.9 µg/mL

Cc1ocnc1COc1cc(Cl)cc(-c2cc(-c3ccccc3C#N)cn(-c3cccnc3)c2=O)c1 [compound 50]
PAMPA permeability [7]: 3.04 ± 0.09 10^−6 cm/s | aq. sol. [2, 14]: 13.1 ± 0.3 µg/mL

Cc1scnc1COc1cc(Cl)cc(-c2cc(-c3c[nH]c(=O)[nH]c3=O)cn(-c3cccnc3)c2=O)c1 [compound 51]
CC50 [9]: > 100 µM | CC50 [8]: 22 µM

Cn1cc(-c2cc(-c3cc(Cl)cc(OCC4CC4)c3)c(=O)n(-c3cccnc3)c2)c(=O)[nH]c1=O [compound 57]
CC50 [9]: 82 µM | CC50 [8]: > 100 µM | aq. sol. [2, 14]: 14.2 ± 0.7 µg/mL

Cn1cc(-c2cc(-c3cc(Cl)cc(OCCC(F)(F)F)c3)c(=O)n(-c3cccnc3)c2)c(=O)[nH]c1=O [compound 60]
CC50 [9]: > 100 µM | CC50 [8]: ~95 µM | aq. sol. [2, 14]: 57.0 ± 0.4 µg/mL

O=c1[nH]cc(-c2cc(-c3cc(Cl)cc(OCc4ocnc4C(F)(F)F)c3)c(=O)n(-c3cccnc3)c2)c(=O)[nH]1 [compound 62]
CC50 [9]: > 100 µM | CC50 [8]: > 100 µM | PAMPA permeability [7]: 0.57 ± 0.09 10^−6 cm/s

O=c1[nH]cc(-c2cc(-c3cc(Cl)cc(OCc4scnc4C(F)(F)F)c3)c(=O)n(-c3cccnc3)c2)c(=O)[nH]1 [compound 63]
CC50 [9]: > 100 µM | CC50 [8]: > 100 µM

Cn1cc(-c2cc(-c3cc(Cl)cc(OCc4scnc4C(F)(F)F)c3)c(=O)n(-c3cccnc3)c2)c(=O)[nH]c1=O [compound 64]
CC50 [9]: > 100 µM | CC50 [8]: > 100 µM | PAMPA permeability [7]: 1.16 ± 0.32 10^−6 cm/s | aq. sol. [2, 14]: 24.8 ± 1.4 µg/mL

CCC(CC)COC(=O)[C@H](C)N[P@](=O)(OC[C@H]1O[C@@](C#N)(c2ccc3c(N)ncnn23)[C@H](O)[C@@H]1O)Oc1ccccc1 [remdesivir, reference compound]
CC50 [4, 15]: 41 ± 2 µM | CC50 [5, 16]: 72 ± 28 µM
